Patent publication US20080009480A1, “CYCLOPENTA[b][1,4]DIAZEPINO[6,7,1-hi]INDOLES AND DERIVATIVES” (Wyeth, priority 2000, published 2008)
pKd, pKi: −log10 of the molar value. Like-named read-outs stand apart in the source and are kept apart here.

Columns and labels:
[1] = molecular target: T1, human 5-hydroxytryptamine2C (h5HT2C) receptor (Homo sapiens, UniProt P28335); assay: 5HT2C receptor binding test procedure ([125I]DOI displacement, CHO cell membranes); conditions: for Ki: 5-HT2C Affinity DOI/Agonist Binding (Ki, μM)
T1 sequence (P28335 33-458): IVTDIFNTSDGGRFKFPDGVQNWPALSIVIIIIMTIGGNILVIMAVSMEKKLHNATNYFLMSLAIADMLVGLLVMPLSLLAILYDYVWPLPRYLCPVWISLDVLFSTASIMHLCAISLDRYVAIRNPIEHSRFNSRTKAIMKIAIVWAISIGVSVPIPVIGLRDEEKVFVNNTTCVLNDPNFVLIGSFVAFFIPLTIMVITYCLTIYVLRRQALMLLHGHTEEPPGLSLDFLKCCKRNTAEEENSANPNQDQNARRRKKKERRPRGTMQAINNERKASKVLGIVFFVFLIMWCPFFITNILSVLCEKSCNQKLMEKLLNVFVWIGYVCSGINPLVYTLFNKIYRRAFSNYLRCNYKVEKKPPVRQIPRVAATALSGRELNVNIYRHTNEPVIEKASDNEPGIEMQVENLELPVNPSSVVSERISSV

human 5-HT2C receptor = molecular target: T2, human 5-HT2C receptor (Homo sapiens, UniProt P28335); assay: Stimulation of [3H] inositol monophosphate production by 5HT2C agonists in transfected CHO cells; format: cell-based; conditions: read-out: 5HT2C % Emax (5HT, 100%)
T2 construct: expressed in transfected cells; host or cells: CHO cells
T2 sequence (P28335 33-458): T1 sequence (P28335 33-458)
Method: One (1) ml of maintenance medium containing 1 μCi/ml myo-[^3H] inositol was added to each well. After 48 hours labeling, the cells were washed once with 0.5 ml DMEM containing 25 mM HEPES and 10 mM LiCl, then preincubated with the medium for 30 min (antagonists were included in this period if tested). At the end of the preincubation, the medium was removed, the cells were then incubated with test compounds (in presence of antagonists if needed) for 30 min. The reaction was terminated by removal of the incubation solution and addition of 0.5 ml ice-cold 5% PCA, followed by 15 to 30 min incubation on ice. 200 μl of 0.5 M Tes/1.5 M K2CO3 was added to each well to neutralize to pH 7, and plates were left on ice for another 15 to 30 min to precipitate all salts. The liquid and solid phases were separated by centrifugation.
A portion (350 μl) of the upper aqueous phase was applied to Dowex AG-1X8 (formate form, 100-200 mesh) columns. The columns were then washed stepwise with 10 ml of water and 10 ml of 25 mM ammonium formate to remove free myo-[^3H]inositol and deacylated phosphoinositol, respectively. Finally 10 ml of 0.2 M ammonium formate solution was applied to the columns to elute [^3H] inositol monophosphate ([^3H] IP1) directly into scintillationvials.
A 3-parameter logistic function is used to generate estimate of EC50/IC50.

male Sprague-Dawley rats = assay: Effects of compounds on feeding behavior in rats (24 hr fast, 2 hour food intake); format: in vivo, rat; conditions: ip, dose giving 50% reduction in food intake
Method: Effects of Compounds on Feeding Behavior in Rats
Eight (8) male Sprague-Dawley rats weighing 150-180 g were separated into individual cages and acclimated to a powdered diet for 2 weeks. During this period and throughout the test procedure, the food cup and the animals were weighed daily. Following the acclimation period, animals were fasted for 24 hours and then injected with either vehicle or one of 4 doses of the test compound. Food intake was assessed at 2 and 24 hours following compound administration. Compounds to be evaluated were injected 1-2× per week until all animals had received all doses of the test compound. The order of doses were chosen using to a modified Latin Square design. Additional studies may be conducted in satieted rats at the start of the dark cycle. Compounds were injected i.p, s.c. or p.o. At the end of the study effects of the test compound on food intake was evaluated using a repeated measures ANOVA. Data were collected were 2 hour food intake (g). Data were subjected to one-way ANOVA with posthoc t-tests to assess group differences. Where appropriate, ED50 values were calculated.

[2] = rat; Martin et al. 1989; cited from earlier work
[3] = several animal species and humans; Cowen et al. 1995; cited from earlier work

SMILES: C[C@@H]1NCCN2c3c1cccc3[C@@H]1CCC[C@@H]12 (relative stereo) [Example 12, rel-(4S,7bS,10aS)-4-Methyl-1,2,3,4,8,9,10,10a-Octahydro-7bH-Cyclopenta[b][1,4]Diazepino[6,7,1-hi]Indole]
- Ki ([1]; [125I]DOI agonist binding): > 5 µM

SMILES: C[C@H]1NCCN2c3c1cccc3[C@@H]1CCC[C@@H]12 (relative stereo) [Example 13, rel-(4R,7bS,10aS)-4-Methyl-1,2,3,4,8,9,10,10a-Octahydro-7bH-Cyclopenta[b][1,4]Diazepino[6,7,1-hi]Indole]
- Ki ([1]; [125I]DOI agonist binding): 0.31 µM

SMILES: CC1CN2c3c(cccc3C3CCCC32)CN1 (single isomer, unassigned) [Example 7]
- Ki ([1]; [125I]DOI agonist binding): 6 µM

SMILES: CC1CN2c3c(cccc3C3CCCC32)CN1 (single isomer, unassigned) [Example 8]
- Ki ([1]; [125I]DOI agonist binding): 5.9 µM

SMILES: CC1CN2c3c(cccc3C3CCCC32)CN1 (single isomer, unassigned) [Example 9]
- Ki ([1]; [125I]DOI agonist binding): 0.91 µM

SMILES: CC1CN2c3c(cccc3C3CCCC32)CN1 (single isomer, unassigned) [Example 10]
- Ki ([1]; [125I]DOI agonist binding): 4.3 µM

SMILES: OC[C@H]1CN2c3c(cccc3C3CCCC32)CN1 (single isomer, unassigned) [Example 11]
- Ki ([1]; [125I]DOI agonist binding): 1.9 µM

SMILES: c1cc2c3c(c1)c1c(n3CCNC2)CCC1 [Example 1, 1,2,3,4,9,10-Hexahydro-8H-cyclopenta[b][1,4]diazepino[6,7,1-hi]indole]
- melting point: 66 to 68 °C

SMILES: c1cc2c3c(c1)C1CCCC1N3CCNC2 (stereo not drawn) [Example 2, 1,2,3,4,8,9,10,10a-octahydro-7bH-cyclopenta[b][1,4]diazepino[6,7,1-hi]indole]
- Emax (human 5-HT2C receptor): 110%
- ED50 (male Sprague-Dawley rats; Rattus norvegicus, read-out: ED50): 8.05 mg/kg

SMILES: c1cc2c3c(c1)[C@@H]1CCC[C@@H]1N3CCNC2 [Example 4A, (7bS,10aS)-1,2,3,4,8,9,10,10a-octahydro-7bH-cyclopenta-[b][1,4]diazepino-[6,7,1-hi]indole]
- Emax (human 5-HT2C receptor): 40%

SMILES: c1cc2c3c(c1)[C@H]1CCC[C@H]1N3CCNC2 [Example 4B, 7bR,10aR)-1,2,3,4,8,9,10,10a-octahydro-7bH-cyclopenta-[b][1,4]diazepino[6,7,1-hi]indole]
- ED50 (male Sprague-Dawley rats): 2.93 mg/kg

SMILES: Cc1cc2c3c(c1)c1c(n3CCNC2)CCC1 [Example 6, 6-Methyl-1,2,3,4,9,10-hexahydro-8H-cyclopenta[b][1,4]diazepino[6,7,1-hi]indole]
- melting point: 168 to 170 °C
- pKi ([1]; read-out: 5HT2C Affinity DOI/Agonist binding (Ki), [125I]DOI agonist binding): 6.01

SMILES: CSc1ccc2c(c1)C(N1CCN(C)CC1)Cc1ccccc1S2 (stereo not drawn) [Methiothepin, reference compound]
- pKi ([1]; reference compounds, [125I]DOI binding, h5HT2C in CHO membranes, read-out: Ki value and 95% confidence interval): 8.34

SMILES: COc1cc(CC(C)N)c(OC)cc1I (stereo not drawn) [[^125I] DOI, reference compound]
- pKd ([1]; read-out: dissociation constant, KD of [125I] DOI at the human serotonin 5HT2C receptor, saturation binding with increasing concentrations of [125I] DOI): 9.40

SMILES: Clc1cccc(N2CCNCC2)c1 [mCPP, meta-chlorophenylpiperazine]
- effect on conditioned avoidance responding (CAR) [2]: block conditioned avoidance responding
- effect on food intake [3]: decreases food intake
